Laboratory results published in patent publication US20240246981A1, “[…] DERIVATIVES AS INHIBITORS OF […]-PEPTIDE CYCLOTRANSFERASE AND […]-PEPTIDE CYCLOTRANSFERASE LIKE PROTEIN” (Boehringer Ingelheim International GmbH, priority 2022, published 2024).
Like-named read-outs stand apart in the source and are kept apart here.

Tests used:
QPCT = QPCT (Homo sapiens (Human), UniProt Q16769); experiment: Assay A: biochemical QPCT activity assay (MALDI-TOF MS); settings: read-out: Inhibition of QPCT: IC50
Procedure, shortened: (§1)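 Compounds preincubated 10 min at 24 °C with enzyme in 20 mM Tris pH 7.5, 0.1 mM TCEP, 0.01% BSA, 0.001% Tween20; CD47 peptide substrate (final 10 μM for QPCTL, 20 μM for QPCT) reacted 40 min at 24 °C. Pyroglutamate product read by MALDI-TOF MS versus internal standard, normalized to controls; four-parameter fit.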

Caco-2 cells = experiment: Assay C: permeability in CACO-2 cells; type: in vitro ADME; settings: for Permeability A-B: Caco-2, apical to basolateral; for efflux ratio: Caco-2
Procedure, shortened: (§2)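 Compound in transport solution applied to apical or basolateral donor side for A-B or B-A permeability, 3 filter replicates. Donor sampled at start and end, receiver at intervals up to 2 hours with volume replaced; concentrations by HPLC-MS/MS or scintillation counting.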

[1] = Assay C: permeability in CACO-2 cells; type: in vitro ADME; settings: human, pH 7.2; for Papp A→B / efflux ratio: compounds of the invention, Table 7
Procedure, shortened: as §2

QPCTL = QPCTL (Homo sapiens (Human), UniProt Q9NXS2); experiment: Assay A: biochemical QPCTL activity assay (MALDI-TOF MS); settings: read-out: Inhibition of QPCTL: IC50
Procedure, shortened: as §1

[2] = tested on: SIRPα signalling induced by Raji cells; experiment: Assay B: SIRPα signalling assay using Raji cells; type: cell-based, human
Procedure, shortened: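 SIRPα signalling induced by Raji cells in a PathHunter reporter line, read as β-galactosidase complementation luminescence. Detection reagent 1 added for 15 min, then reagent 2 for 60 min in the dark, both at room temperature.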

[3] = tested on: SIRPα signalling induced by A549 cells; experiment: Assay B: SIRPα signalling assay using A549 cells; type: cell-based, human
Procedure, shortened: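 5000 Raji or A549 cells were cultured 48 h at 37 °C with serially diluted compound (DMSO), then 15000 Jurkat PathHunter SIRPα reporter cells were added for 5 h. Beta-galactosidase luminescence was developed at RT, and IC50 obtained by 4-parameter sigmoidal fit.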

[4] = target: human glutaminyl cyclase (hQC) (Homo sapiens (Human), UniProt Q16769); settings: J-S, NCB 2015 supplementary information; read-out: IC50 on isolated hQC; cited from earlier work
[5] = target: glutamine acyl cyclase isoenzyme (Homo sapiens (Human), UniProt Q9NXS2); settings: given in CN 114874186; cited from earlier work
[6] = compounds of the invention, Table 2
[7] = Homo sapiens, compounds of the invention, Table 4, read-out: Inhibition of SIRα signalling induced by Raji cells: IC50
[8] = Homo sapiens, prior art compounds, Table 5, read-out: Inhibition of SIRPα signalling induced by Raji cells: IC50
[9] = Homo sapiens, compounds of the invention, Table 4, read-out: Inhibition of SIRα signalling induced by A549 cells: IC50
[10] = Homo sapiens, prior art compounds, Table 5, read-out: Inhibition of SIRPα signalling induced by A549 cells: IC50
[11] = prior art compounds, Table 5, read-out: Inhibition of SIRPα signalling induced by Raji cells: IC50
[12] = prior art compounds, Table 5, read-out: Inhibition of SIRPα signalling induced by A549 cells: IC50
[13] = compounds of the invention, Table 7

QPCT, sequence (Q16769 29-361): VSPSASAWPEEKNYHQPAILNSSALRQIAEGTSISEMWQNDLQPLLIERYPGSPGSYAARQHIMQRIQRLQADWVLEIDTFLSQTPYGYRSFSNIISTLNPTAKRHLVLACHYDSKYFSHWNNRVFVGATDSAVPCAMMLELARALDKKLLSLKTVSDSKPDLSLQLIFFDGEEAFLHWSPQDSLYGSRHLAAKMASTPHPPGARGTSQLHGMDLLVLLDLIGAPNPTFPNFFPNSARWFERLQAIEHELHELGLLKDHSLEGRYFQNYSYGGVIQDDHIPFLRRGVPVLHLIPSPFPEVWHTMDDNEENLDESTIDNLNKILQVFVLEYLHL
QPCTL, sequence (Q9NXS2 whole entry): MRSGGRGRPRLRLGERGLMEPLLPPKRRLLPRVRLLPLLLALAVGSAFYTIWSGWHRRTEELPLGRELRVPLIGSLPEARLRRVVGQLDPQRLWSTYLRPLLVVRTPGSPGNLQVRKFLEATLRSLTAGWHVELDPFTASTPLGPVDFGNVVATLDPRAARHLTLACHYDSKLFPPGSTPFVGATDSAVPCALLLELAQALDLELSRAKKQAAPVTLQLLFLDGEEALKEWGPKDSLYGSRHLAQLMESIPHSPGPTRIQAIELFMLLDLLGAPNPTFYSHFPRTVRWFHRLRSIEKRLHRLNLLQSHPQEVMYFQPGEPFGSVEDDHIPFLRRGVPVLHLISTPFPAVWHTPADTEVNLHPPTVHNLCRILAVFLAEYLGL
human glutaminyl cyclase (hQC), sequence (Q16769 29-361): as the sequence (Q16769 29-361) above
glutamine acyl cyclase isoenzyme, sequence (Q9NXS2 whole entry): as the sequence (Q9NXS2 whole entry) above

SMILES	IC50 (QPCT; [6])	Permeability A-B (Caco-2 cells; prior art compounds, Table 8)	efflux ratio (Caco-2 cells; prior art compounds, Table 8)	Papp A→B ([1]; Caco-2, apical to basolateral)	efflux ratio ([1]; Caco-2)	IC50 (QPCTL; [6])	IC50 (QPCTL; prior art compounds, Table 3)	IC50 [2, 7]	IC50 [2, 8]	IC50 [3, 9]	IC50 [3, 10]	IC50 (QPCT; prior art compounds, Table 3)	IC50 [2, 11]	IC50 [3, 12]	other results
Nc1nnc(C2CCN(c3ncccc3-c3ccc(F)nc3)CC2)s1 [compound 1095, reference compound]		73 10^−6 cm/s	1.0				13 nM					260 nM	2200 nM	259 nM	
Cn1cnnc1C1CCN(c2ncccc2-c2cccnc2)CC1 [SEN180, reference compound]		4.2 10^−6 cm/s										176 nM	2970 nM	868 nM	IC50 [4]: 170 nM
Cn1cnnc1C1CCN(S(=O)(=O)c2cccc(Nc3ccc(OCc4ccccc4)nc3)c2)CC1 [compound 23, reference compound]							4770 nM		> 10000 nM		> 10000 nM	1840 nM			IC50 [5]: 11.3 nM; Papp A→B at 2 h ([1]; Caco-2, apical to basolateral, prior art compounds, Table 8): 3.5 ×10⁻⁶ cm/s; efflux ratio at 2 h ([1]; Caco-2, prior art compounds, Table 8): 17.6

More lines, main results first:

IC50 (QPCT; [6])	Permeability A-B (Caco-2 cells; prior art compounds, Table 8)	efflux ratio (Caco-2 cells; prior art compounds, Table 8)	Papp A→B ([1]; Caco-2, apical to basolateral)	efflux ratio ([1]; Caco-2)	IC50 (QPCTL; [6])	IC50 (QPCTL; prior art compounds, Table 3)	IC50 [2, 7]	IC50 [2, 8]	IC50 [3, 9]	IC50 [3, 10]	IC50 (QPCT; prior art compounds, Table 3)	IC50 [2, 11]	IC50 [3, 12]	SMILES	other results
7 nM	0.2 10^−6 cm/s	65.0	3.9 ×10⁻⁶ cm/s	16.9	1 nM	1 nM	220 nM	9 nM	26 nM	14 nM				Cn1cnnc1C1CCN(c2c(C#N)cccc2-c2cncc(-n3cccn3)c2)CC1 [compound 6, reference compound]	
51 nM	93 10^−6 cm/s	0.8	0.6 ×10⁻⁶ cm/s	41.8	11 nM		629 nM	2740 nM	290 nM	1400 nM				COCCOc1ncc(-c2cccc(C#N)c2N2CCC(c3nncn3C)CC2)cn1 [compound 3, reference compound]	
11 nM					2 nM									CNC(=O)c1cncc(-c2cccc(C#N)c2N2CCC(c3nncn3C)CC2)c1 [Example 80]	Permeability A-B (Caco-2 cells; [13]): 0.2 10^−6 cm/s; efflux ratio (Caco-2 cells; [13]): 37.8; IC50 ([2]; compounds of the invention, Table 4, read-out: Inhibition of SIRα signalling induced by Raji cells: IC50): 336 nM; IC50 ([3]; compounds of the invention, Table 4, read-out: Inhibition of SIRα signalling induced by A549 cells: IC50): 176 nM
